The record followed here is US11090410B2 (priority 2011, dated 2021).

The subject of the experiment is acetylcholine receptor clustering in C2C12 mouse myoblast cell line. The format is cell-based. The note with it: for acetylcholine receptor clustering behavior: C2C12 cells on fibrin hydrogels, 5 days of treatment or beyond.

“Also recorded” adds a separate entry of the source. Like-named read-outs stand apart in the source and are kept apart here.

Take “beads covalently linked to agrin: polystyrene microparticles with agrin linked to the surface using EDAC/sulfo-NHS covalent crosslinking chemistry”: the “acetylcholine receptor clustering behavior” value was “induction of clustering behavior; also recorded: Clustering behavior was verified at areas of contact”. The “acetylcholine receptor clustering behavior” value (listed as agrin-delivering microparticles) is reported as “formation of AChR clusters”. Further, the “agrin delivery over longer time periods” value (e.g., 5 or more days) is recorded as “enabled agrin delivery over longer time periods”.
